Assay results published in ChEMBL document CHEMBL1156972, “Discovery of 2-ureidophenyltriazines bearing bridged morpholines as potent and selective ATP-competitive mTOR inhibitors” (Bioorg Med Chem Lett, 2010).
Active and inactive are the calls of the source. The rule behind the calls is not given here.

How the values were obtained:
[1] = target: Serine/threonine-protein kinase mTOR (Rattus norvegicus, UniProt P42346); assay: Inhibition of rat brain mTOR assessed as p70S6K-GST protein phosphorylation after 30 mins by ELISA
LNCaP = assay: Antiproliferative activity against human LNCAP cells after 3 days by MTS assay; format: functional, cell-based; conditions: 72 h
[2] = Inhibition of PI3K assessed as PIP3 level after 20 mins by HTRF assay
[3] = Selectivity ratio of IC50 for PI3K to IC50 for rat brain mTOR
U-87MG ATCC [4] = assay: Antitumor activity against human U87MG cells xenografted in nude mouse assessed as reduction in tumor volume at 5 to 15 mg/kg, po QD for 5 days measured up to 10 days; format: functional, organism-based
[5] = Antitumor activity against human U87MG cells xenografted in nude mouse assessed as reduction in tumor volume at 10 mg/kg, po QD for 5 days measured after 8 days relative to control; format: functional, U-87MG ATCC; design: scale not given: the % may be the effect or the level left
U-87MG ATCC [6] = assay: Antitumor activity against human U87MG cells xenografted in nude mouse assessed as reduction in tumor volume at 12.5 to 25 mg/kg, po QD for 5 days measured after 9 days; format: functional, organism-based
[7] = Antitumor activity against human U87MG cells xenografted in nude mouse assessed as reduction in tumor volume at 5 mg/kg, iv QD for 5 days measured after 9 days relative to control; format: functional, U-87MG ATCC; design: scale not given: the % may be the effect or the level left
MDA361 = assay: Inhibition of PI3K in human MDA361 cells assessed as suppression of P-AKT T308 level at 0.0125 to 10 uM by immunoblotting; format: cell-based
Mus musculus [8] = assay: Inhibition of mTOR in human MDA361 cells xenografted in nude mouse assessed as suppression of TORC1 level at 10 mg/kg, iv after 8 hrs by immunoblotting; format: functional, organism-based; design: dose 10 mg/kg
Mus musculus [9] = assay: Inhibition of mTOR in human MDA361 cells xenografted in nude mouse assessed as suppression of TORC2 level at 10 mg/kg, iv after 8 hrs by immunoblotting; format: functional, organism-based; design: dose 10 mg/kg
Mus musculus [10] = assay: Inhibition of PI3K signalling in human MDA361 cells xenografted in nude mouse assessed as suppression of PI3K/PDK1 level at 10 mg/kg, iv after 8 hrs by immunoblotting; format: functional, organism-based; design: dose 10 mg/kg
Mus musculus [11] = assay: Inhibition of mTOR in human MDA361 cells xenografted in nude mouse assessed as suppression of TORC1 level at 25 mg/kg, iv after 8 hrs by immunoblotting; format: functional, organism-based; design: dose 25 mg/kg
Mus musculus [12] = assay: Inhibition of mTOR in human MDA361 cells xenografted in nude mouse assessed as suppression of TORC2 level at 25 mg/kg, iv after 8 hrs by immunoblotting; format: functional, organism-based; design: dose 25 mg/kg
Mus musculus [13] = assay: Inhibition of PI3K signalling in human MDA361 cells xenografted in nude mouse assessed as suppression of PI3K/PDK1 level at 25 mg/kg, iv after 8 hrs by immunoblotting; format: functional, organism-based; design: dose 25 mg/kg

| Compound | IC50 [1] | IC50 (LNCaP) | IC50 [2] | Ratio IC50 [3] | also measured |
| --- | --- | --- | --- | --- | --- |
| FC(F)c1nc2ccccc2n1-c1nc(N2CCOCC2)nc(N2CCOCC2)n1 [ZSTK-474] | 0.045 µM | 0.21 µM | – | – | – |
| CN1CCN(c2ccc(NC(=O)Nc3ccc(-c4nc(N5CC6CCC(C5)O6)nc(N5C6CCC5COC6)n4)cc3)cc2)CC1 | 0.002 µM | < 0.0008 µM | 0.15 µM | 75 | – |
| CN1CCN(c2ccc(NC(=O)Nc3ccc(-c4nc(N5C[C@H]6C[C@@H]5CO6)nc(N5C[C@H]6C[C@@H]5CO6)n4)cc3)cc2)CC1 | 0.13 µM | 0.55 µM | 1.82 µM | 14 | – |
| FC(F)c1nc2ccccc2n1-c1nc(N2CCOCC2)nc(N2CC3CCC(C2)O3)n1 | 0.06 µM | 0.18 µM | 0.024 µM | 0.41 | – |
| CNC(=O)Nc1ccc(-c2nc(N3CC4CCC(C3)O4)nc(N3CC4CCC(C3)O4)n2)cc1 | 0.0025 µM | 0.19 µM | 0.68 µM | 272 | – |
| O=C(Nc1ccc(-c2nc(N3CC4CCC(C3)O4)nc(N3CC4CCC(C3)O4)n2)cc1)NC1CC1 | 0.0026 µM | 0.09 µM | 2.12 µM | 802 | – |
| CN1CCN(c2ccc(NC(=O)Nc3ccc(-c4nc(N5C[C@@H]6C[C@H]5CO6)nc(N5C[C@@H]6C[C@H]5CO6)n4)cc3)cc2)CC1 | 0.035 µM | – | 3.44 µM | 98 | – |
| O=C(Nc1ccncc1)Nc1ccc(-c2nc(N3CC4CCC(C3)O4)nc(N3CC4CCC(C3)O4)n2)cc1 | 0.0005 µM | 0.045 µM | 0.142 µM | 282 | – |
| CCNC(=O)Nc1ccc(-c2nc(N3CC4CCC(C3)O4)nc(N3CC4CCC(C3)O4)n2)cc1 | 0.0028 µM | 0.18 µM | 2.69 µM | 961 | – |
| CN1CCN(c2ccc(NC(=O)Nc3ccc(-c4nc(N5CC6CCC(C5)O6)nc(N5CC6CCC(C5)O6)n4)cc3)cc2)CC1 | 0.0017 µM | 0.0023 µM | 0.087 µM | 51 | Activity (U-87MG ATCC [4]): Active; Activity [5]: 44% |
| CN1CCN(c2ccc(NC(=O)Nc3ccc(-c4nc(N5C6CCC5COC6)nc(N5C6CCC5COC6)n4)cc3)cc2)CC1 | – | – | – | – | Activity (U-87MG ATCC [6]): Active; Activity [7]: 31%; inhibition (MDA361): Active; inhibition (Mus musculus [8]): Active; inhibition (Mus musculus [9]): Active; inhibition (Mus musculus [10]): inactive; inhibition (Mus musculus [11]): Active; inhibition (Mus musculus [12]): Active; inhibition (Mus musculus [13]): Active |
| FC(F)c1nc2ccccc2n1-c1nc(N2CC3CCC(C2)O3)nc(N2CC3CCC(C2)O3)n1 | 0.044 µM | 0.68 µM | 0.124 µM | 2.8 | – |
